# Test results published in paper PMC6492180, “Cytome micronucleus assays with a metabolically competent human derived liver cell line (Huh6): A promising approach for routine testing of chemicals?” (Environmental and Molecular Mutagenesis, 2018).
# Legend:
# Human lymphocytes = settings: cited from earlier work
# HepaRG = settings: cited from earlier work
# Huh6 cells = test system: Huh6 cells
# Method: All experiments were performed in duplicate.
# 3.8–4.0 × 10^5 cells per well were seeded into 6‐well plates with 3 mL of RPMI (4% FBS) for 12 hr, then dilutions of stock solutions of the diagnostic mutagens were added for different time periods (4, 24, and 48 hr). In each experimental series solvent controls were included. Subsequently, the cells were washed twice with 3.0 mL medium. […] Finally, the cells were washed and trypsinised. Afterwards the cells were washed twice with 8.0 mL RPMI and collected on slides by cytocentrifugation (600 rpm, 5 min). The slides were air dried, fixed, and stained with DiffQuick according to the instructions of the manufacturer. For each experimental point, two cultures were tested per dose. From each culture ≥1,000 BN cells were evaluated under 400‐fold magnification (Nikon Photophot‐FXA, Tokyo, Japan). At least 2,000 binucleated cells were analyzed per dose for the determination of the different nuclear anomalies (MN, NBuds, and NBs).
# The experiments were performed as described in the previous chapter. The cells were exposed only to one dose of the different mutagens and were cultivated after the seeding in 6‐well plates which contained 4% or 10% FBS in RPMI, respectively.
# Data were evaluated by generalized linear model with Poisson counts. Chi‐square tests for overdispersion were applied. […] P values ≤0.05 were considered statistically significant.
# ^150-60 000 cells were seeded in 6 well plates with 3 ml RPMI (4% FBS), subsequently different solutions of the test compound (dissolved in medium) were added. After treatment for different time periods, the cells was washed and processed as described in the Material and Method section. […] From each culture 1000 binoculated cells were evaluated. BN-MN – number of micronucleated cells; MN - total number of micronuclei; CBPI – cytokinesis-block proliferation index
# ^1The experiments were conducted essentially as described in the footnote of Table S1A-I. *p≤0.05
# Hep3B = settings: cited from earlier work
# HepG2 = settings: cited from earlier work
substance,measurement,setting,value
Aflatoxin B1 [AFB1],Lowest effective concentration (LOEC) in micronucleus experiments,Human lymphocytes,"0.1 + S9 (Miller et al., 1998) μM"
same,Lowest effective concentration (LOEC) in micronucleus experiments,HepaRG,"0.25 (Le Hegarat et al., 2010) μM"
same,"MN formation with the longer exposure time, treatment for 1 or 7 days (in words)",HepaRG,stronger effects
same,Lowest effective concentration (LOEC) in micronucleus experiments,Huh6 cells,10.0 µM
same,MN effects after 24 hr (or longer) compared with 4 hr treatment (in words),Huh6 cells,similar
same,MN frequencies with 10% serum compared with 4% serum (in words),Huh6 cells,stronger effects
same,Lowest effective concentration (LOEC) in micronucleus experiments,Hep3B,"0.5 (Majer et al., 2004) μM"
same,Lowest effective concentration (LOEC) in micronucleus experiments,HepG2,"0.5 (Josse et al., 2012) μM"
